Reference: US20030224940A1, “Alpha-sulfin-and alpha-sulfonamino acid amide derivatives” (priority 2000, published 2003)
Read-outs that look alike come from different tables or passages of the source.

What was measured:
Plasmopara viticola = conditions: read-out: inhibit fungal infestation
Procedure: D-1: Action Against Plasmopara viticola (downy mildew) on Vines
5 week old grape seedlings cv. Gutedel are treated with the formulated test compound in a spray chamber. One day after application grape plants are inoculated by spraying a sporangia suspension (4×10^4 sporangia/ml) on the lower leaf side of the test plants. After an incubation period of 6 days at +21° C. and 95% r. h. in a greenhouse the disease incidence is assessed.

Phytophthora [1] = assay: whole plant or invertebrate; type: in vivo; conditions: in Solanum tuberosum, read-out: inhibit fungal infestation
Phytophthora [2] = assay: whole plant or invertebrate; type: in vivo; conditions: in Solanum lycopersicum, read-out: inhibit fungal infestation

Row | SMILES | melting point | inhibition at 200 ppm (Plasmopara viticola) | inhibition at 200 ppm (Phytophthora [1]) | inhibition at 200 ppm (Phytophthora [2])
1 | CCS(=O)(=O)N[C@H](C(=O)NCc1ccc(OCC#Cc2ccc(Cl)cc2)c(OC)c1)C(C)C [Compound A1.1, (S)-N-{4-[3-(4-Chloro-phenyl)-prop-2-ynyloxy]-3-methoxy-benzyl}-2-ethanesulfonylamino-3-methyl-butyramide] | 162 to 163 °C | ≥ 80% | ≥ 80% | ≥ 80%
2 | CCS(=O)(=O)N[C@H](C(=O)NCc1ccc(O)c(OC)c1)C(C)C | 49 to 50 °C | – | – | –
3 | CCS(=O)(=O)N[C@H](C(=O)NCc1ccc(OCc2ccccc2)c(OC)c1)C(C)C | 141 to 152 °C | – | – | –
